Assay [1] concerns the target T1, Endoribonuclease toxin MazF (Escherichia coli K-12, UniProt P0AE70).
T1 sequence (P0AE70 whole entry): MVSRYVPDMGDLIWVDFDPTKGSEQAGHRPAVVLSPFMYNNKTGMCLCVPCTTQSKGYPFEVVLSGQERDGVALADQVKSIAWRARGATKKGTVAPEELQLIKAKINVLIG
Nature of the assay: MazF endoribonuclease activators, SAR follow-up, biochemical, fluorescence, single-stranded RNA substrate (AID 588603). Format: functional.

Assay [2] deals with T1, Endoribonuclease toxin MazF. Nature of the assay: MazF toxin RNase activators, dose response, biochemical, fluorescence, single-stranded RNA substrate, uHTS hits (AID 588481). Format: functional.
The target is the same in assay [3]. Description: SAR analysis of small molecule activators of the MazEF TA System via a fluorescence-based single-stranded RNase assay counterscreen. [Related pubchem assays (depositor defined):AID504720, AID504743]. Format: functional.
The subject of assay [4] is MEF. Description: SAR analysis of small molecule cytotoxicity of MazEF TA System activators in embryonic fibroblast (MEF) cells. [Related pubchem assays (depositor defined):AID504720, AID504743]. The following applies: Mus musculus. Format: functional.
Assay [5] deals with T1, Endoribonuclease toxin MazF. Description: fluorescent RNA oligo signal without MazF, dose response, counter-screen for MazEF activator project, biochemical, fluorescence, single-stranded RNase substrate (AID 588502). The format is functional. A general note: A counterscreen serves to expose hits that act by an unwanted route or on another target.
Assay [6] in a line: cytotoxicity in HEK-293T cells, dose response, cytotoxicity control for BCR NF-kB inhibitor project, luminescence, B-cell screen hits (AID 489021).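 Further: HEK-293T cells carrying an NF-kB luciferase reporter; cells exposed to compound for about 14 hours before viability readout.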 The format is functional, cell-based.
The target in assay [7] is Cytochrome P450 2C19 (Homo sapiens, UniProt P33261). Nature of the assay: Cytochrome panel assay with activity outcomes. Panel member name: p450-cyp2c19 Compounds with AC50 equal or less than 10 uM are considered active. The following applies: read-out: AC50. Format: functional.
The subject of assay [8] is Jurkat. Description: SAR Analysis of small molecule inhibitors of T-cell specific antigen receptor-induced NF-kB activation in a Jurkat cell line using a luminescence assay - Set 2. [Related pubchem assays (depositor defined):AID435003, AID435012, AID465]. Format: functional, cell-based. To be noted: Homo sapiens.
The subject of assay [9] is HEK293. Nature of the assay: SAR Analysis of small molecule inhibitors of T-cell specific antigen receptor-induced NF-kB activation in a HEK-293T cell line using a luminescence assay - Set 2. [Related pubchem assays (depositor defined):AID435003, AID435012, AID489026]. The format is functional, cell-based. The following applies: Homo sapiens.
Assay [10] relates to HEK293. Description: cytotoxicity in HEK293T NF-kB-Luc cells, SAR follow-up, cytotoxicity control for NF-kB activator project, cell-based, resazurin fluorescence (AID 493251). The format is functional. The following applies: Homo sapiens. On the technique in general: Resazurin is reduced to fluorescent resorufin, in cell work by metabolically active cells.
Assay [11] concerns the target Cytochrome P450 2C9 (Homo sapiens, UniProt P11712).
Assay [12] addresses Beta-2 adrenergic receptor (Homo sapiens, UniProt P07550). Description: beta2AR agonists driving receptor internalization, dose response, cell-based, FAP fluorogen, flow cytometry, cherry pick 1 (AID 588763). Format: functional.

Each structure is given as a SMILES string. Calls of active or inactive are those of the source.

Sequence of Beta-2 adrenergic receptor (P07550 whole entry): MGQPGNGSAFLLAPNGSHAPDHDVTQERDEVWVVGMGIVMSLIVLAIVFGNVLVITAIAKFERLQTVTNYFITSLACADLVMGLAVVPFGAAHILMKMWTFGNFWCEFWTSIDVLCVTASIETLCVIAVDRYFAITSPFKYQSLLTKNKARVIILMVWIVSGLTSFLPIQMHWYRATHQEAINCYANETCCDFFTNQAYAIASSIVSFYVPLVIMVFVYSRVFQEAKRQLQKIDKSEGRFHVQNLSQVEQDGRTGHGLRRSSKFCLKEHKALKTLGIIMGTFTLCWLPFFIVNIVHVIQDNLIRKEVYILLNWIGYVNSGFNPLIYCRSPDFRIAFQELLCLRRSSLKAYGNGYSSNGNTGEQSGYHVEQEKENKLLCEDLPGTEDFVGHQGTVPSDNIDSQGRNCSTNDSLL
Sequence of Cytochrome P450 2C9 (P11712 whole entry): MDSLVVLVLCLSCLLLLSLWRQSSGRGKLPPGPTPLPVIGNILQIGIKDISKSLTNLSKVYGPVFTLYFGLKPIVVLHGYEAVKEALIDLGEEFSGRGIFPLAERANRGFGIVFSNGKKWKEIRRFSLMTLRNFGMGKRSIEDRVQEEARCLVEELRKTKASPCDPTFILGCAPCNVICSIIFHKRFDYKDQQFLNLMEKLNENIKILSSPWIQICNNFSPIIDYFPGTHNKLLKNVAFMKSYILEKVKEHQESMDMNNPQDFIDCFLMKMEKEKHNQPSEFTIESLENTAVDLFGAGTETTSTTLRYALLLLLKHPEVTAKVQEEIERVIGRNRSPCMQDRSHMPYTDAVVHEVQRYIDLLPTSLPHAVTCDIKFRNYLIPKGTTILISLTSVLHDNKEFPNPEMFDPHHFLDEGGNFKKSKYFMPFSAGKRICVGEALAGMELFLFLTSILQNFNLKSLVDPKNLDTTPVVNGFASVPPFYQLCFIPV
Sequence of Cytochrome P450 2C19 (P33261 whole entry): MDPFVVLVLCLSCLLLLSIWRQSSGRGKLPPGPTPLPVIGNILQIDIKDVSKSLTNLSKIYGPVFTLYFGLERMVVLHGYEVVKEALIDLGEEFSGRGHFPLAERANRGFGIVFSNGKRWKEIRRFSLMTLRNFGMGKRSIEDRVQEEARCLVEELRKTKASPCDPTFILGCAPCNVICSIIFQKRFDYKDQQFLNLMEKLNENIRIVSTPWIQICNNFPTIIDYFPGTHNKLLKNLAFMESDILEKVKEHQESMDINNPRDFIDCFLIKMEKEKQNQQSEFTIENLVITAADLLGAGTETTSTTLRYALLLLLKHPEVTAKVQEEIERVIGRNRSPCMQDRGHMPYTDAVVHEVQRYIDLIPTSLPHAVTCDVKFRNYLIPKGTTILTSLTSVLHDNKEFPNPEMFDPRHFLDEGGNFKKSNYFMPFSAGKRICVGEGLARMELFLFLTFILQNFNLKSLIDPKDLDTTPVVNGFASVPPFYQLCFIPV

`COc1cc(C(=O)Oc2cc(N)n(S(=O)(=O)c3ccc(F)cc3)n2)cc(OC)c1OC`: the EC50 (commonly the concentration at which the effect is half-maximal) was 3.48 µM (active) in assay [1], 14.8 µM (active) in assay [2], > 99 µM (inactive) in assay [3] and > 99 µM (inactive) in assay [5]. For the same compound, the CC50 (usually the concentration at which the toxic effect on the cells reaches its halfway point) in assay [4] is 85.3 µM (active).

On to `CNC(=O)CCc1nc(-c2ccc(C(C)(C)C)cc2)no1`, for which the IC50 – broadly, the midpoint of a concentration-inhibition curve – in assay [6] is > 80 µM (inactive); in [8], > 79 µM (inactive); in [9], 53.1 µM (inactive); in assay [10] it was > 80 µM (inactive). Further, the AC50 (commonly the concentration at which the activity in the assay is half-maximal) is 39.8 µM (inconclusive) in assay [7] and 0.355 µM (inconclusive) in assay [11].

Take `C=CCc1ccc(OCCOc2ccc(/C=N/n3cnnc3)cc2OCC)c(OC)c1`: the EC50 in [12] was 0.587 µM (active).

With `CCOc1ccc(CNC(=O)c2ccc(NC(=O)C3=CSCCO3)cc2)cc1`, the EC50 in [12] is 0.0608 µM (active).

Take `N#Cc1cc2ccccc2nc1SCC(=O)Nc1ccccc1N1CCOCC1`: the EC50 in [1] is 5.15 µM (active); in assay [2] it was 17.5 µM (active); in assay [3], > 99 µM (inactive); in assay [5], > 99 µM (inactive). In [4], the CC50 is > 99 µM (inactive).
